# Experimental data: patent US6531512B1, “Method of treating cancer in patients having a deficiency in p53 tumor suppressor gene” (Health Research Inc., priority 1998, dated 2003)
# “Also recorded” adds a separate entry of the source. Marks after values point to notes of the source that are not given here.
# Experiments:
# [1] = system: SK-MEL-28 human melanoma cells; assay: Cell cycle distribution of SK-MEL-28 cells by flow cytometry; format: cell-based; conditions: SK-MEL-28 (mt-p53), attached cells, 10 μM, 24 hours treatment (footnote)
# Description: (§1) MALME-3M cells were cultured as described in Example 1 and treated with 10 μM DENSPM as described in Example 2. Cell cycle arrest was monitored using a FACScan flow cytometry unit (Becton Dickinson, San Jose, Calif.) according to the method of Krishan (1975) J. Cell Biol. 66:[…]. Untreated MALME-3M cell cultures were used as controls.
# (§2) MALME-3M human melanoma cells were cultured as described in Example 1 and treated continuously with 10 μM DENSPM or 10 μM spermine (SPM) for 48 hours. SK-MEL-28 cells were also cultured as described in Example 1 and treated with 10 μM DENSPM for 24 hours. Untreated cells were used as a control.
# (§3) The effect of DENSPM and spermine on cell growth was monitored using a Coulter Counter (see Example 2). The effect on cell cycle was monitored by flow cytometry as described in Example 3.
# [2] = system: SK-MEL-28 human melanoma cells; assay: Cell growth / apoptotic response of SK-MEL-28 cells (Coulter Counter, growth kinetics); format: cell-based
# Description: (§4) MALME-3M human melanoma cells containing wt-p53 (American Tissue Type Culture Collection, Bethesda, Md.) and human SK-MEL-28 cells containing mt-p53 (American Tissue Type Culture Collection, Bethesda, Md.) were cultured as a monolayer in RPMI 1640 medium containing 10% Nu-Serum (Collaborative Research Products, Bedford, Mass.), 1 mM aminoguanidine, penicillin (50 units/ml) and streptomycin (50 μg/ml) as described by Kramer et al, J. Biol. Chem., 270:2124-32 (1995) and Kramer et al., Cancer Res., 57:5521-5527 (1997).
# (§5) MALME-3M cells were cultured as described in Example 1. The cells were seeded by adding 1×10^5 cells to a T-25 vented cell culture flask. After 24 hours, the asynchronous cell cultures were treated with 10 μM N^1, N^11-diethylnorspermine (DENSPM) prepared by dissolving DENSPM in distilled water and sterilizing the solution by filtration through a 0.22 micron Millipore membrane. The cells were treated by continuous exposure to DENSPM for 6 days (i.e., the polyamine was added to the cell culture at T=0 and the culture was incubated for the desired amount of time). The number of viable MALME-3M cells were monitored electronically using a Model ZM Coulter Counter (Coulter Electronics, Hialeah, Fla.). Untreated MALME-3M cell cultures were used as controls.
# as §2
# The effect of DENSPM and spermine on cell growth was monitored using a Coulter Counter (see Example 2). The effect on cell cycle was monitored by flow cytometry as described in Example 3. […]
# [3] = system: MALME-3M human melanoma cells; assay: Cell cycle distribution of MALME-3M cells by flow cytometry; format: cell-based
# Description: as §1
# Cell cycle arrest of serum synchronized MALME-3M cells was also monitored using flow cytometry. MALME-3M cells were synchronized in G0/G1 by replacing cell culture media containing 10% NuSerum (see Example 1) with media lacking NuSerum and incubating the cultures for 120 hours. The synchronized cells were released by the addition of 10% NuSerum (control culture) or 10% NuSerum plus 10 μM DENSPM. The cells were then grown continuously in the presence of serum (control) or DENSPM for up to 96 hours. The untreated cells (control) re-established an asynchronous profile (i.e., progressed through the cell cycle) by 60 hours.
# as §3
# [4] = system: SK-MEL-28 human melanoma cells; assay: Polyamine pools and analog accumulation in SK-MEL-28 cells; format: cell-based
# Description: as §2, with “treated” for “treated continuously”, “as described in Example 4.” for “for 48 hours.”, “as describe in Example 4.” for “for 24 hours.”
# (§6) After treatment with DENSPM or spermine, biochemical parameters including polyamine enzymes activity, polyamine pools and analog accumulation were monitored as described by Kramer et al, J. Biol. Chem., 270:2124-32 (1995) and Kramer et al., Cancer Res., 57:5521-5527 (1997). Polyamine enzyme activity was monitored for ornithine […] (ODC); S-adenosylmethionine decarboxylase (SAMDC); and spermidine/spermine N^1-acetyltransferase (SSAT). Polyamine pools was monitored for putrescine (Put); spermidine (Spd); and spermine (Spm).
# (§7) Enzyme activity and polyamine pools were measured as described in Example 5.
# mRNA for p53 and p21 = assay: Northern blot of p53 and p21 mRNA in MALME-3M cells; format: cell-based, human; conditions: asynchronous, 10 μM
# Description: Asynchronously growing MALME-3M cells were treated for 0 to 48 hours with 10 μM DENSPM as described in Example 2. Northern blots were used to detect mRNA for p53 and p21. The Northern blot procedure is described by Fogel-Petrovic et al. in Molec. Pharn, 52:69-74 (1997); and Biochemistry, 35:14436-14444 (1996). cDNA probes used in Nothern blot hybridization of p21 and p53 mRNA were obtained, respectively, from Dr. Bert Vogelstein (Johns Hopkins Oncology Center, Baltimore, Md.; El-Deiry et al., Cell, 75:817-825) and from Dr. Stephen Friend (Seattle, Wash.; Ishioka et al., Oncogene 10:1485-1492 (1995)). The relative increase in mRNA with analog treatment was normalized to the […] (GAPDH) signal to account for lane loading differences.
# [5] = system: MALME-3M human melanoma cells; assay: Polyamine pools in MALME-3M cells; format: cell-based; conditions: MALME-3M (wt-p53), 10 μM, Table 2 (24 hours treatment)
# Description: as §2, with “treated” for “treated continuously”, “as described in Example 4.” for “for 48 hours.”, “as describe in Example 4.” for “for 24 hours.”
# as §6
# [6] = system: MALME-3M human melanoma cells; assay: Cell growth of MALME-3M cells (Coulter Counter); format: cell-based; conditions: 10 μM
# Description: as §4, §5, §2, §3
# [7] = system: SK-MEL-28 human melanoma cells; assay: Cell growth / apoptotic response of SK-MEL-28 cells (Coulter Counter, growth kinetics); format: cell-based; conditions: SK-MEL-28 (mt-p53), 10 μM, 48 hours
# [8] = system: ornithine decarboxylate (ODC); assay: Polyamine enzyme activity in treated melanoma cells: ODC; format: cell-based, human; conditions: for ODC activity: 10 μM
# Description: as §2, with “treated” for “treated continuously”, “as described in Example 4.” for “for 48 hours.”, “as describe in Example 4.” for “for 24 hours.”
# as §6, §7
# [9] = SK-MEL-28 (mt-p53), 10 μM, Table 2, 24 hours
# [10] = SK-MEL-28 cells, 24 hours, Table 4
# [11] = MALME-3M (wt-p53), Table 2 (24 hours treatment)
smiles,measurement,setting,value
"CCNCCCNCCCNCCCNCC [DENSPM, N^1,N^11-diethylnorspermine]","% Total Cells, G1",[1],74** %
same,"% Total Cells, G2/M",[1],9** %
same,"% Total Cells, S",[1],17** %
same,% Growth Control,[2]; [9],26%
same,% Control Growth,[2]; [10],30%
same,cell growth and/or apoptosis response,"[2]; SK-MEL-28 cells, growth kinetic analysis",massive and rapid apoptotic response; also recorded: rapid cytotoxic response
same,"% Total Cells at 48 hours, G1","[3]; MALME-3M (wt-p53), asynchronous, 10 μM, 48 hours",88%
same,cell cycle distribution of serum synchronized cells,"[3]; MALME-3M synchronized in G0/G1, released with serum plus 10 μM, up to 96 hours",accumulated in the G1 and G2/M phases of the cycle but not in S phase
same,onset of G1 arrest after treatment,"[3]; MALME-3M, asynchronous, 10 μM",about 16 hours
same,"Polyamine Pools, Put",[4]; [9],70 pmol/10^6 cells
same,"Polyamine Pools, Spd",[4]; [9],20 pmol/10^6 cells
same,"Polyamine Pools, Spm",[4]; [9],105 pmol/10^6 cells
same,decrease in spermine pools,"[4]; SK-MEL-28 cells, 24 hours",95%
same,Analog (intracellular accumulation),[4]; [10],7710 pmol/10^6 cells
same,"Polyamine Pools, Put",[4]; [10],115 pmol/10^6 cells
same,"Polyamine Pools, Spd",[4]; [10],45 pmol/10^6 cells
same,"Polyamine Pools, Spm",[4]; [10],190 pmol/10^6 cells
same,start of p21 mRNA increase,mRNA for p53 and p21,12 h
same,p53 mRNA,"mRNA for p53 and p21; 0 to 48 hours, normalized to GAPDH",remained constant
same,p21 mRNA increase,"mRNA for p53 and p21; 48 hours, normalized to GAPDH",about 20 fold
same,"Polyamine Pools, Put",[5],205 pmol/10^6 cells
same,"Polyamine Pools, Spd",[5],60 pmol/10^6 cells
same,"Polyamine Pools, Spm",[5],285 pmol/10^6 cells
same,% Control Growth,"[6]; MALME-3M (wt-p53), 48 hours",54%
same,% Growth Control,[6]; [11],83%
same,time course of viable cell number,"[6]; MALME-3M, asynchronous, continuous exposure 6 days","steady growth for the first 24 hours, then a plateau and then began to decline in number from 48 hours onwards"
same,% Control Growth,[7],0%
same,ODC activity,[8]; [11],30 pmol/hr/mg protein
same,ODC activity,"[8]; SK-MEL-28 (mt-p53), Table 2, 24 hours",5 pmol/hr/mg protein
same,"Enzyme Activities, ODC",[8]; [10],37 pmol/hr/mg protein
